Measured values reported in BindingDB's records for doi:10.1080/14756360400015231 (Quaid-I-Azam University, 2005).

What follows are molecules tested against Carboxylic ester hydrolase (Equus caballus, UniProt Q9N1N9) (assay: Enzyme Inhibition Assay). Settings: pH 8; 25 °C.
Chain of Carboxylic ester hydrolase (Q9N1N9 whole entry): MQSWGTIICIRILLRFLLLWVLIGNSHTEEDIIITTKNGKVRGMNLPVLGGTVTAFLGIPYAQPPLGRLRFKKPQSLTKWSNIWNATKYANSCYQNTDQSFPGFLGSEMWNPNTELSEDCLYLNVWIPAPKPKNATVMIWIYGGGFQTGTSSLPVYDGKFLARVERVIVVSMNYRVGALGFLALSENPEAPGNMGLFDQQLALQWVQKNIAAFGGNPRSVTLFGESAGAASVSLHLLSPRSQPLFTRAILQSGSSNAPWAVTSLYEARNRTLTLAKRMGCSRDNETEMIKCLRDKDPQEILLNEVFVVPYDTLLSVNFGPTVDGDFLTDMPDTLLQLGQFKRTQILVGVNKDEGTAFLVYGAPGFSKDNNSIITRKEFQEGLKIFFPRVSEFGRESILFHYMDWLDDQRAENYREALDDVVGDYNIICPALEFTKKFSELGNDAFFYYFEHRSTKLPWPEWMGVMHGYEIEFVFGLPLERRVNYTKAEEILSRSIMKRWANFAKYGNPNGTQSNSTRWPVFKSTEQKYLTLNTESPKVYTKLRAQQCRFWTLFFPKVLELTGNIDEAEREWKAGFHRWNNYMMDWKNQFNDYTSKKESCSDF
Procedure: In vitro cholinesterase inhibition assay using electric-eel acetylcholinesterase, horse-serum butyrylcholinesterse. The IC50 values were calculated using the […] enzyme kinetics program (Perrella Scientific Inc., Amherst, USA).
In the case of `O=C(/C=C/c1ccc(O)cc1)c1ccccc1` [Chalcone 2], the IC50 is reported as 40 µM.
For `COc1ccc(/C=C/C(=O)c2ccccc2)cc1OC` [Chalcone, 5], the IC50 was 23.1 µM.
`O=C(/C=C/c1cccc(O)c1)c1ccccc1` [Chalcone, 2] was tested, and the IC50 was 46.2 µM.
`O=C(/C=C/c1ccccc1)c1ccccc1` [Chalcone, 13] gave an IC50 of 109 µM.
`O=C(/C=C/c1ccccc1O)c1ccccc1` [Chalcone, 1] showed an IC50 of 16 µM.
In the case of `COc1ccc(/C=C/C(=O)c2ccccc2)cc1` [Chalcone, 4], the IC50 is reported as 39 µM.
